In patent publication US7446199B2, “Compositions useful as inhibitors of protein kinases” (Vertex Pharmaceuticals Incorporated, priority 2003, dated 2008):

Legend:
JAK3 = biological target: T1, JAK3 (Homo sapiens, UniProt P52333); assay: JAK3 inhibition assay (ELISA, Poly (Glu, Ala, Tyr) coated plates); format: biochemical; conditions: 2 mM ATP, 60 minutes at 30° C.
T1 sequence (P52333 1-1124): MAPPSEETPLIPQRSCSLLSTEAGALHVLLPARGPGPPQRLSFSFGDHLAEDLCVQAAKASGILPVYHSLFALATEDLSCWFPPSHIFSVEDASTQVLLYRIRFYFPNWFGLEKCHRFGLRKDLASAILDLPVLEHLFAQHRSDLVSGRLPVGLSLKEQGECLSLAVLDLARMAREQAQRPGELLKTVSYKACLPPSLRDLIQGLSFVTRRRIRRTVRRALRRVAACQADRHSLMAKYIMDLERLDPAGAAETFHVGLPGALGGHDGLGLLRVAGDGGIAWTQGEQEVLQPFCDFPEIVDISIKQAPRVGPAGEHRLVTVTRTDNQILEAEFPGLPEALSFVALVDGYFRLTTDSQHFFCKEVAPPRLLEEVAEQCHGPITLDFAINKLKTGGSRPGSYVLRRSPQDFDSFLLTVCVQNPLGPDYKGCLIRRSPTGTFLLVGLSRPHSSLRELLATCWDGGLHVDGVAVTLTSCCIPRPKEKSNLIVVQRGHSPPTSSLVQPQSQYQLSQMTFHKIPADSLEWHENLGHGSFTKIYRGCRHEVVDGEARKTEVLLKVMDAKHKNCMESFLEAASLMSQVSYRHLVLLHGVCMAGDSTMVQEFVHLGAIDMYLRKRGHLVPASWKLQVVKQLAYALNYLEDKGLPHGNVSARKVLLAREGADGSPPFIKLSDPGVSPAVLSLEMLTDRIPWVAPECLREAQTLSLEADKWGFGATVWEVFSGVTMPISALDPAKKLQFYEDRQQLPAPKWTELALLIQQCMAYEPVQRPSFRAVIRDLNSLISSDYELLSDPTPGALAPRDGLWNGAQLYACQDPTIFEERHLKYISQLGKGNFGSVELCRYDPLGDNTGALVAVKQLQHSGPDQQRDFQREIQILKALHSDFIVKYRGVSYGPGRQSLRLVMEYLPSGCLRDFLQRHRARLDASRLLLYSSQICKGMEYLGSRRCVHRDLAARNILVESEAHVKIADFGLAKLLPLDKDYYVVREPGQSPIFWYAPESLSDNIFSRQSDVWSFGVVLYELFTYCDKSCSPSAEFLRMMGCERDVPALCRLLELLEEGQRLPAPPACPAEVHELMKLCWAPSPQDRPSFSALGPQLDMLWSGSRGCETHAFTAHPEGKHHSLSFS
How it was run: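 ELISA on Poly(Glu,Ala,Tyr) 6:3:1-coated plates with 2 mM ATP and 5 mM MgCl2. JAK enzyme started the reaction, run 60 min at 30° C. Phosphotyrosine was detected with HRP-conjugated 4G10 antibody and TMB, read at 450 nm, and IC50 was derived from optical densities.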

c-KIT = biological target: T2, c-KIT (Homo sapiens, UniProt P10721); assay: Inhibition of c-KIT, radiometric filter-binding assay; format: biochemical; conditions: 700 μM ATP, 0.5 mg/mL pE4Y, room temperature
T2 construct: 0.02% BSA and 25 nM c-KIT
How it was run: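 Radiometric filter-binding: 25 nM c-KIT (enzyme in the Solution 2 mix) with poly(Glu,Tyr) 4:1 substrate at 0.5 mg/mL and [γ-^33P]ATP at 700 μM (both final), in HEPES pH 7.5/MgCl2/NaCl/DTT/BSA with 2.5% DMSO. Incubated 20 min at room temperature, stopped with TCA, and ^33P incorporation counted on filters. 12-point titration, final compound typically 0.01-5 μM; IC50 or Ki from curve fit.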

T2 sequence (P10721 26-976): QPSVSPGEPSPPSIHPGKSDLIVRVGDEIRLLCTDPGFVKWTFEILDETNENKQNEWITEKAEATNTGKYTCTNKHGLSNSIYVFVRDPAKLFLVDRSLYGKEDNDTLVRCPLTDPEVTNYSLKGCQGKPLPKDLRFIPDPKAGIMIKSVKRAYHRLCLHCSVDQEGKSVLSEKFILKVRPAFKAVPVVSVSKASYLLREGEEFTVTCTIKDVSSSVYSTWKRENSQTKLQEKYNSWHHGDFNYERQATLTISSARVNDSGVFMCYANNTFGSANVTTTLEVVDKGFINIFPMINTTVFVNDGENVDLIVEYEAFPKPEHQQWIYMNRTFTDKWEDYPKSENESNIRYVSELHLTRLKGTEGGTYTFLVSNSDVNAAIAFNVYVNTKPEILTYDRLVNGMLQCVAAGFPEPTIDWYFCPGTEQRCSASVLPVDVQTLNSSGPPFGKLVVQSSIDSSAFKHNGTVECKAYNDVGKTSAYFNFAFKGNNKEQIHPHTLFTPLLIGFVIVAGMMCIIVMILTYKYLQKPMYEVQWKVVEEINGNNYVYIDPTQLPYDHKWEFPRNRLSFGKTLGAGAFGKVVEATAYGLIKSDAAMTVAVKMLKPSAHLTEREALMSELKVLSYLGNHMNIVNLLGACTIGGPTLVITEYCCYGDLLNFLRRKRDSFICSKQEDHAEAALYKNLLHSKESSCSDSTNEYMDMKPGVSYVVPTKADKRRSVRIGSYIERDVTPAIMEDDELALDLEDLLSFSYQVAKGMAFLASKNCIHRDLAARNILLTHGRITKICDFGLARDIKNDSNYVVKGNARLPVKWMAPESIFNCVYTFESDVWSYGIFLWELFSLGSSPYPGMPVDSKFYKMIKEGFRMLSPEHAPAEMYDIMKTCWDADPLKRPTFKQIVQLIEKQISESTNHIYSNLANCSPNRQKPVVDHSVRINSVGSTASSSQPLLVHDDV

SMILES	Ki (JAK3) [µM]	Ki (c-KIT) [µM]
Oc1cnc2[nH]cc(-c3oncc3-c3cccc(Cl)c3Cl)c2c1 [Compound 48, 3-[4-(2,3-Dichloro-phenyl)-isoxazol-5-yl]-1H-pyrrolo[2,3-b]pyridin-5-ol]	< 0.2	0.2 to 1
COc1cnc2[nH]cc(-c3oncc3-c3cccc(Cl)c3Cl)c2c1 [Compound 49, 3-[4-(2,3-Dichloro-phenyl)-isoxazol-5-yl]-5-methoxy-1H-pyrrolo[2,3-b]pyridine]	< 0.2	< 0.2
CN(C)CC#Cc1cnc2[nH]cc(-c3oncc3-c3cccc(F)c3F)c2c1 [Compound 53, (3-{3-[4-(2,3-Difluoro-phenyl)-isoxazol-5-yl]-1H-pyrrolo[2,3-b]pyridin-5-yl}-prop-2-ynyl)-dimethyl-amine]	0.2 to 1	< 0.2
Fc1cccc(-c2cnoc2-c2c[nH]c3ncc(-c4ccncc4)cc23)c1F [Compound 57, 3-[4-(2,3-Difluoro-phenyl)-isoxazol-5-yl]-5-pyridin-4-yl-1H-pyrrolo[2,3-b]pyridine]	< 0.2	< 0.2
Fc1cccc(-c2cnoc2-c2c[nH]c3ncc(-c4cccnc4)cc23)c1F [Compound 59, 3-[4-(2,3-Difluoro-phenyl)-isoxazol-5-yl]-5-pyridin-3-yl-1H-pyrrolo[2,3-b]pyridine]	< 0.2	< 0.2
CN1CCC(c2cnc3[nH]cc(-c4oncc4-c4cccc(F)c4F)c3c2)CC1 [Compound 60, 3-[4-(2,3-Difluoro-phenyl)-isoxazol-5-yl]-5-(1-methyl-piperidin-4-yl)-1H-pyrrolo[2,3-b]pyridine]	1 to 12.5	0.2 to 1
CN(C)c1cccc(-c2cnc3[nH]cc(-c4oncc4-c4cccc(F)c4F)c3c2)c1 [Compound 61, (3-{3-[4-(2,3-Difluoro-phenyl)-isoxazol-5-yl]-1H-pyrrolo[2,3-b]pyridin-5-yl}-phenyl)-dimethyl-amine]	0.2 to 1	< 0.2
Fc1cccc(-c2cnoc2-c2c[nH]c3ncc(C4CCNCC4)cc23)c1F [Compound 62, 3-[4-(2,3-Difluoro-phenyl)-isoxazol-5-yl]-5-piperidin-4-yl-1H-pyrrolo[2,3-b]pyridine]	1 to 12.5	0.2 to 1
CC(=O)Nc1cccc(-c2cnc3[nH]cc(-c4oncc4-c4cccc(F)c4F)c3c2)c1 [Compound 65, N-(3-{3-[4-(2,3-Difluoro-phenyl)-isoxazol-5-yl]-1H-pyrrolo[2,3-b]pyridin-5-yl}-phenyl)-acetamide]	< 0.2	< 0.2
O=c1ccc(-c2cnc3[nH]cc(-c4oncc4-c4cccc(F)c4F)c3c2)c[nH]1 [Compound 67, 5-{3-[4-(2,3-Difluoro-phenyl)-isoxazol-5-yl]-1H-pyrrolo [2,3-b]pyridin-5-yl}-1H-pyridin-2-one]	< 0.2	< 0.2
Fc1cccc(-c2cnoc2-c2c[nH]c3ncc(-c4ccc(N5CCNCC5)cc4)cc23)c1F [Compound 68, 3-[4-(2,3-Difluoro-phenyl)-isoxazol-5-yl]-5-(4-piperazin-1-yl-phenyl)-1H-pyrrolo[2,3-b]pyridine]	< 0.2	< 0.2
Fc1ccc(-c2cnc3[nH]cc(-c4oncc4-c4cccc(F)c4F)c3c2)cn1 [Compound 69, 3-[4-(2,3-Difluoro-phenyl)-isoxazol-5-yl]-5-(6-fluoro-pyridin-3-yl)-1H-pyrrolo[2,3-b]pyridine]	0.2 to 1	< 0.2
CN1CCN(c2ccc(-c3cnc4[nH]cc(-c5oncc5-c5cccc(F)c5F)c4c3)cc2)CC1 [Compound 70, 3-[4-(2,3-Difluoro-phenyl)-isoxazol-5-yl]-5-[4-(4-methyl-piperazin-1-yl)-phenyl]-1H-pyrrolo[2,3-b]pyridine methanesulfonate]	< 0.2	< 0.2
CN1CCN(c2ccc(-c3cnc4[nH]cc(-c5oncc5-c5cccc(F)c5F)c4c3)cn2)CC1 [Compound 71, 3-[4-(2,3-Difluoro-phenyl)-isoxazol-5-yl]-5-[6-(4-methyl-piperazin-1-yl)-pyridin-3-yl]-1H-pyrrolo[2,3-b]pyridine]	< 0.2	< 0.2
CCN1CCC(c2cnc3[nH]cc(-c4oncc4-c4cccc(F)c4F)c3c2)CC1 [Compound 72, 3-[4-(2,3-Difluoro-phenyl)-isoxazol-5-yl]-5-(1-ethyl-piperidin-4-yl)-1H-pyrrolo[2,3-b]pyridine]	1 to 12.5	< 0.2

Next, values leading:

Ki (JAK3) [µM]	Ki (c-KIT) [µM]	SMILES
< 0.2	< 0.2	Fc1cccc(-c2cnoc2-c2c[nH]c3ncc(-c4ccccn4)cc23)c1F [Compound 73, 3-(4-(2,3-Difluoro-phenyl)-isoxazol-5-yl)-5-pyridin-2-yl-1H-pyrrolo[2,3-b]pyridine]
< 0.2	< 0.2	Fc1cccc(-c2cnoc2-c2c[nH]c3ncc(-c4c[nH]cn4)cc23)c1F [Compound 76, 3-[4-(2,3-Difluoro-phenyl)-isoxazol-5-yl]-5-(3H-imidazol-4-yl)-1H-pyrrolo[2,3-b]pyridine]
< 0.2	< 0.2	Fc1cccc(-c2cnoc2-c2c[nH]c3ncc(-c4cnc5[nH]ccc5c4)cc23)c1F [Compound 77, 3-[4-(2,3-Difluoro-phenyl)-isoxazol-5-yl]-1H,1′H-[5,5′]bi[pyrrolo[2,3-b]pyridinyl]]
0.2 to 1	< 0.2	COc1ccnc(-c2cnc3[nH]cc(-c4oncc4-c4cccc(F)c4F)c3c2)c1 [Compound 78, 3-[4-(2,3-Difluoro-phenyl)-isoxazol-5-yl]-5-(4-methoxy-pyridin-2-yl)-1H-pyrrolo[2,3-b]pyridine]
< 0.2	< 0.2	CN(C)Cc1ccnc(-c2cnc3[nH]cc(-c4oncc4-c4cccc(F)c4F)c3c2)c1 [Compound 82, (2-{3-[4-(2,3-Difluoro-phenyl)-isoxazol-5-yl]-1H-pyrrolo[2,3-b]pyridin-5-yl}-pyridin-4-ylmethyl)-dimethyl-amine]
< 0.2	< 0.2	Nc1ccnc(-c2cnc3[nH]cc(-c4oncc4-c4cccc(F)c4F)c3c2)c1 [Compound 83, 2-{3-[4-(2,3-Difluoro-phenyl)-isoxazol-5-yl]-1H-pyrrolo [2,3-b]pyridin-5-yl}-pyridin-4-ylamine]
< 0.2	< 0.2	CN(C)Cc1ccc(-c2cnc3[nH]cc(-c4oncc4-c4cccc(F)c4F)c3c2)nc1 [Compound 84, (6-{3-[4-(2,3-Difluoro-phenyl)-isoxazol-5-yl]-1H-pyrrolo[2,3-b]pyridin-5-yl}-pyridin-3-ylmethyl)-dimethyl-amine]
0.2 to 1	< 0.2	Fc1cccc(-c2cnoc2-c2c[nH]c3ncc(-c4cncnc4)cc23)c1F [Compound 85, 3-[4-(2,3-Difluoro-phenyl)-isoxazol-5-yl]-5-pyrimidin-5-yl-1H-pyrrolo[2,3-b]pyridine]
< 0.2	< 0.2	Nc1cccc(-c2cnc3[nH]cc(-c4oncc4-c4cccc(F)c4F)c3c2)c1 [Compound 86, 3-{3-[4-(2,3-Difluoro-phenyl)-isoxazol-5-yl]-1H-pyrrolo [2,3-b]pyridin-5-yl}-phenylamine]
< 0.2	< 0.2	Oc1cccc(-c2cnc3[nH]cc(-c4oncc4-c4cccc(F)c4F)c3c2)c1 [Compound 87, 3-{3-[4-(2,3-Difluoro-phenyl)-isoxazol-5-yl]-1H-pyrrolo [2,3-b]pyridin-5-yl}-phenol]
